The record followed here is US20260373274A1, “PEPTIDE-LINKED DRUG DELIVERY SYSTEM” (priority 2022, published 2026).

The nature of data set [1]: Hematology, complete blood count. It is filed as in vivo, female BALB/c mice. To be noted: i.v. weekly for 3 weeks; DM1/DM1-Bdd 0.75 mg/kg, CIS 10 mg/kg. As to the method:
Necropsy—Seven- to 9-week-old female BALB/c mice (n=4/group) were treated weekly with PBS, DM1, DM1-peptide (0.75 mg/kg of drug content), or cisplatin (10 mg/kg) via tail-vein injection (150 μL). At the end of a 3-week treatment, mice were euthanized. The organs/tissues were harvested, fixed in 10% neutral buffered formalin for 2 days. Bones were decalcified in a formic acid solution (Surgipath Decalcifier I; Leica Biosystems, Weltzar, Germany). The samples were then embedded in paraffin, sectioned (5 μm), and stained with H&E for examination by an ACVP board certified anatomic pathologist.
(§1) Hematology and biochemistry—Blood samples were collected via cardiac puncture. A complete blood count, including red blood cell, white blood cell, reticulocyte and platelet counts, with an automated differential leukocyte count, was performed using an IDEXX Procyte DX hematology analyzer (iDEXX, Westbrook. ME). Blood smears were prepared, stained with modified Wright's stain, examined in a blinded fashion by a board-certified veterinary clinical pathologist (T.S.), and imaged using a Nikon Eclipse TE2000-U fluorescent microscope equipped with a photometrics CoolSNAP HQ^2 camera (Nikon Corporation, Tokyo, Japan). The blood was also centrifuged (1,500×G) for 15 min to obtain the serum for biochemical analysis using a Beckman Coulter AU680 analyzer (Beckman Coulter, Brea, CA).

Another data set is described as follows: Serum biochemistry. It is filed as in vivo, female BALB/c mice. To be noted: i.v. weekly for 3 weeks; DM1 0.75 mg/kg, CIS 10 mg/kg.
Excerpt: (§2) At the end of a 3-week treatment, mice were euthanized. The organs/tissues were harvested, fixed in 10% neutral buffered formalin for 2 days. Bones were decalcified in a formic acid solution (Surgipath Decalcifier I; Leica Biosystems, Weltzar, Germany). The samples were then embedded in paraffin, sectioned (5 μm), and stained with H&E for examination by an ACVP board certified anatomic pathologist.
as §1

In data set [2] the test system is major organs (liver, spleen, heart, lungs, and kidneys). In words: Necropsy, histopathology of major organs. It is filed as in vivo, female BALB/c mice. To be noted: i.v. weekly for 3 weeks; DM1/DM1-Bdd 0.75 mg/kg, CIS 10 mg/kg.
Excerpt: as §2

The nature of data set [3]: Fluorescence imaging of Cyanine5.5-labeled peptides (in vivo, ex vivo, urine). On the set-up: species or system Female SHO mice. To be noted: i.v. The text has this:
The animals were then euthanized.

The subject of data set [4] is orthotopic human UMUC-3 tumors. In words: Therapeutic efficacy for treating BC, orthotopic UMUC-3/GFP-Luc xenograft. To be noted: 5 mg/kg weekly. An excerpt:
These animals were immediately euthanized I week after the completion of the treatment schedule.
Slides were then counterstained with Hematoxylin.

The test system of data set [5] is kidney injury molecule-1 (KIM-1) and neutrophil gelatinase-associated lipocalin (NGAL). In words: Nephrotoxicity studies, urinary renal injury biomarkers by ELISA. It is filed as in vivo, BALB/c mice. To be noted: single i.v. dose; 3 days. As to the method: The level of the acute renal injury biomarkers, neutrophil gelatinase-associated lipocalin (NGAL) and kidney injury molecule-1 (KIM-1) in the urine samples, were measured using ELISA assays according to the manufacturer's instructions (R&D Systems, Minneapolis, MN). […] All the animals (n=3/group) were euthanized at the end of the treatment and the kidneys were collected and fixed in 10% neutral buffered formalin. The tissues were then processed, embedded in paraffin, sectioned, and stained with H&E. Immunohistochemistry (IHC) for kidney injury (NGAL and KIM-I) was also performed.
(An ELISA detects its analyte on a solid surface through an enzyme-linked reagent.)

Data set [6] is described as follows: μPET/CT imaging and biodistribution of ^89Zr-radiolabeled peptides. It is filed as in vivo, BALB/c mice. To be noted: i.v. As to the method:
Radiochemistry—^89Zirconium (^89Zr) was supplied by 3DImaging LLC (Little Rock, AR). The ^89Zr-oxalate (500 μCi) was first neutralized with an equivalent volume of sodium carbonate solution (2 M), and then added to the DFO-peptides (0.2 mg, 250 μL). After incubation for 1.5 h at room temperature, the radiolabeled peptides (^89Zr-peptides) were purified by size exclusion chromatography using Sephadex G-25 gel to remove the free zirconium.
μPET/CT imaging and biodistribution study—BALB/c mice were intravenously injected with different ^89Zr-peptide analogues (20 μCi, 100 μL). μLPET/CT imaging was performed in animals with and without urine collection prior to the first imaging (n=4/analogue/condition). Whole-body images were acquired 1, 4, and 24 h after injection, using Inveon μPET/CT scanner (Siemens Medical Solutions, Malvern, PA). μPET/CT maximum energy projections were processed using Amide v1.0.4 and Inveon Research Workplace software. The radioactivities at different region of interest (ROI) were determined. […] The radioactivities of the harvested organs were measured using the Wallac Wizard 2 gamma counter. The results were corrected from radioactive decay, and were expressed as a percentage of the injected dose (% ID) or percentage of injected dose per gram of tissue (% ID/g).

Entries after “also recorded” stand apart in the source; their conditions may differ. Where a SMILES comes first, the peptide text is derived from it.

With `N.N.[Cl][Pt][Cl]` [CIS, cis-dichlorodiammine platinum(II)], the “red blood cell, leukocyte, or platelet counts or morphologic features” value in data set [1] is “thrombocytopenia and lymphopenia”. The “muscle injury (CK activity)” value in “Serum biochemistry” is “induced muscle injury (CK activity)”. Also, the “histopathology of liver, spleen, heart, lungs, or kidneys” value in data set [2] was “degeneration and necrosis of the proximal renal tubules, lung inflammation, and depletion of both erythrocytes and extramedullary hematopoiesis (EMH) in spleen”.

As for `CN1/C(=C/C=C/C=C/C2=[N+](CCCCCC(=O)NCCC(=O)N[C@@H](CCCCN)C(=O)N[C@@H](CC(=O)O)C(=O)NCCC(=O)N[C@@H](CCCCN)C(=O)N[C@@H](CC(=O)O)C(=O)NCCC(=O)N[C@@H](CCCCN)C(=O)N[C@@H](CC(=O)O)C(=O)NCCC(=O)N[C@@H](CCCCN)C(=O)N[C@@H](CC(=O)O)C(N)=O)c3ccc4ccccc4c3C2(C)C)C(C)(C)c2c1ccc1ccccc21` [Cy-BKD] (HELM PEPTIDE1{[CN1/C(=C/C=C/C=C/C2=[N+](CCCCCC(=O)[*:2])c3ccc4ccccc4c3C2(C)C)C(C)(C)c2c1ccc1ccccc21].[bAla].K.D.[bAla].K.D.[bAla].K.D.[bAla].K.D.[am]}$$$$V2.0), the main uptake organ result in data set [3] was “mainly taken up by the liver”.

In the case of `CN1/C(=C/C=C/C=C/C2=[N+](CCCCCC(=O)NCCC(=O)N[C@@H](CCCCN)C(=O)N[C@@H](CCCCN)C(=O)NCCC(=O)N[C@@H](CCCCN)C(=O)N[C@@H](CCCCN)C(=O)NCCC(=O)N[C@@H](CCCCN)C(=O)N[C@@H](CCCCN)C(=O)NCCC(=O)N[C@@H](CCCCN)C(=O)N[C@@H](CCCCN)C(N)=O)c3ccc4ccccc4c3C2(C)C)C(C)(C)c2c1ccc1ccccc21` [Cy-BKK] (HELM PEPTIDE1{[CN1/C(=C/C=C/C=C/C2=[N+](CCCCCC(=O)[*:2])c3ccc4ccccc4c3C2(C)C)C(C)(C)c2c1ccc1ccccc21].[bAla].K.K.[bAla].K.K.[bAla].K.K.[bAla].K.K.[am]}$$$$V2.0), in data set [3], the main uptake organ result is “mainly taken up by the liver”.

Turning to `COc1cccc2c1C(=O)c1c(O)c3c(c(O)c1C2=O)C[C@@](O)(C(=O)CO)C[C@@H]3O[C@H]1C[C@H](N)[C@H](O)[C@H](C)O1` [DOX, Doxorubicin, reference compound], in data set [4], the body weight result is recorded as “all the animals continuously losing weight” and the “life expectancy compared to the PBS control / mortality” value is recorded as “shorter life expectancy compared to the PBS control; also recorded: died prior to receiving the final dose; also recorded: caused mortality”.

Consider `Nc1ccn([C@@H]2O[C@H](CO)[C@@H](O)C2(F)F)c(=O)n1` [GEM, gemcitabine], for which the “induction of KIM-1 and/or NGAL, 3 days” value in data set [5] is “continued induction of KIM-1 and/or NGAL”.

Regarding `CO[C@@]12[C@H](COC(N)=O)C3=C(C(=O)C(C)=C(N)C3=O)N1C[C@@H]1N[C@@H]12` [MIT, Mitomycin], the “induction of KIM-1 and/or NGAL, 3 days” value in data set [5] was “continued induction of KIM-1 and/or NGAL”.

Turning to `CC(=O)N(O)CCCCCNC(=O)CCC(=O)N(O)CCCCCNC(=O)CCC(=O)N(O)CCCCCNC(=S)Nc1ccc(NC(=S)NCCC(=O)N[C@@H](CCCCN)C(=O)N[C@@H](CCCCN)C(=O)NCCC(=O)N[C@@H](CCCCN)C(=O)N[C@@H](CCCCN)C(=O)NCCC(=O)N[C@@H](CCCCN)C(=O)N[C@@H](CCCCN)C(=O)NCCC(=O)N[C@@H](CCCCN)C(=O)N[C@@H](CCCCN)C(N)=O)cc1` [^89Zr-BKK, metal not drawn] (HELM PEPTIDE1{[CC(=O)N(O)CCCCCNC(=O)CCC(=O)N(O)CCCCCNC(=O)CCC(=O)N(O)CCCCCNC(=S)Nc1ccc(NC(=S)[*:2])cc1].[bAla].K.K.[bAla].K.K.[bAla].K.K.[bAla].K.K.[am]}$$$$V2.0), in data set [6], the organ distribution result is listed as “delivered to the liver in addition to the URS”.

Turning to “Cyanine5.5 [free Cy, reference compound]”, the main uptake organ entry in data set [3] is “mainly taken up by the liver”.

“NH2-(PEG3)DD-(PEG3)DD-(PEG3)DD-(PEG3)DD-CONH2 (SEQ ID NO:5) [PEG3DD]”: the “accumulation in kidneys over time” value in data set [6] is on record as “initial increase”.
